# Laboratory results taken from the supplement of paper PMC10307832.
# Key:
# Experiment in all cases: relative viability (nuclei count vs DMSO), 5 days (fraction); higher = more cells survive
# RU-SKI 43 + Vorinostat = compound: CC[C@@H](C)CNCC(=O)N1CCC2=C([C@@H]1COC3=CC=CC(=C3)C)C=CS2 [RU-SKI 43] + O=C(CCCCCCC(=O)Nc1ccccc1)NO [Vorinostat] (partner 1 µM)
# Procedure, shortened: (§1)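 Relative viability equals treated-well nuclei counts divided by vehicle-well nuclei counts. Counts came from 4× images of lung cancer cell lines grown in 1536-well plates for 5 days after pin-tool dosing on the day after seeding. Dosing used one drug alone or a fixed anchor-drug dose plus five library-drug doses (not always all listed) in √10 steps, and values are medians of duplicate plates.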
# MK-8033 + Olaparib = compound: Cn1cc(-c2cnc3ccc4ccc(CS(=O)(=O)NCc5ccccn5)cc4c(=O)c3c2)cn1 [MK-8033] + O=C(c1cc(Cc2n[nH]c(=O)c3ccccc23)ccc1F)N1CCN(C(=O)C2CC2)CC1 [Olaparib] (partner 8 µM)
# Procedure, shortened: as §1
# MK-8033 + Navitoclax = compound: Cn1cc(-c2cnc3ccc4ccc(CS(=O)(=O)NCc5ccccn5)cc4c(=O)c3c2)cn1 [MK-8033] + CC1(C)CCC(c2ccc(Cl)cc2)=C(CN2CCN(c3ccc(C(=O)NS(=O)(=O)c4ccc(N[C@H](CCN5CCOCC5)CSc5ccccc5)c(S(=O)(=O)C(F)(F)F)c4)cc3)CC2)C1 [Navitoclax] (partner 0.5 µM)
# Procedure, shortened: as §1
# RU-SKI 43 + Crizotinib = compound: CC[C@@H](C)CNCC(=O)N1CCC2=C([C@@H]1COC3=CC=CC(=C3)C)C=CS2 [RU-SKI 43] + C[C@@H](Oc1cc(-c2cnn(C3CCNCC3)c2)cnc1N)c1c(Cl)ccc(F)c1Cl [Crizotinib] (partner 1 µM)
# Procedure, shortened: as §1
Cell Line,relative viability (RU-SKI 43 + Vorinostat; first compound 0.1 µM),relative viability (RU-SKI 43 + Vorinostat; first compound 0.3162 µM),relative viability (RU-SKI 43 + Vorinostat; first compound 1 µM),relative viability (RU-SKI 43 + Vorinostat; first compound 3.162 µM),relative viability (RU-SKI 43 + Vorinostat; first compound 10 µM),relative viability (MK-8033 + Olaparib; first compound 0.02 µM),relative viability (MK-8033 + Olaparib; first compound 0.06325 µM),relative viability (MK-8033 + Olaparib; first compound 0.2 µM),relative viability (MK-8033 + Olaparib; first compound 0.6325 µM),relative viability (MK-8033 + Olaparib; first compound 2 µM),relative viability (MK-8033 + Navitoclax; first compound 0.02 µM),relative viability (MK-8033 + Navitoclax; first compound 0.06325 µM),relative viability (MK-8033 + Navitoclax; first compound 0.2 µM),relative viability (MK-8033 + Navitoclax; first compound 0.6325 µM),relative viability (MK-8033 + Navitoclax; first compound 2 µM),relative viability (RU-SKI 43 + Crizotinib; first compound 0.1 µM),relative viability (RU-SKI 43 + Crizotinib; first compound 0.3162 µM),relative viability (RU-SKI 43 + Crizotinib; first compound 1 µM),relative viability (RU-SKI 43 + Crizotinib; first compound 3.162 µM),relative viability (RU-SKI 43 + Crizotinib; first compound 10 µM)
HCC-44,1.14,1.12,1.12,1.15,1.05,1,1.06,0.931,1.01,0.975,0.874,0.911,0.912,0.963,0.899,0.778,0.785,0.846,0.796,0.806
NCI-H2342,0.724,,0.718,0.884,0.716,0.448,0.393,0.507,0.424,0.418,,,,,,,,,,
NCI-H1792,,,,,,0.451,0.448,0.337,0.351,0.3,0.826,0.649,0.593,0.61,0.653,1.09,1.53,1.21,1,0.921
NCI-H661,0.752,0.984,0.815,0.777,0.736,0.726,0.679,0.774,0.71,0.675,,,,,,0.887,0.943,0.984,0.942,0.938
NCI-H1395,0.844,0.602,1.07,0.611,0.91,0.448,0.362,0.463,0.469,0.462,1.38,1.02,1.04,1.15,1.07,,,,,
NCI-H1793,0.799,0.742,0.872,0.792,0.602,0.863,,0.688,0.894,0.94,0.454,,0.291,0.38,0.508,,,,,
SW 900,0.36,0.584,0.782,0.621,0.221,0.851,0.876,0.852,0.788,0.812,,,,,,,,,,
NCI-H1703,,,,,,0.385,0.304,0.524,0.336,0.598,0.967,1.08,0.988,1.12,0.924,,0.734,0.61,0.594,0.381
NCI-H1299,,,,,,1.01,0.967,0.927,1,0.982,1.04,1.03,1.03,1.07,1.01,0.947,1.12,0.995,1.01,0.957
